Measured values published in ChEMBL document CHEMBL1201862, “PubChem BioAssay data set” (2004).
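96-well plates; 48 h exposure; 5 concentrations. Endpoints by linear interpolation between flanking doses. Not reached: highest tested concentration assigned. At the GI50, growth is halved.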 The source made the active and inactive calls. Cut-off read from the data, not from the text of the source: active = GI50 up to about 1.1 µM and inactive = higher.

What was measured:
Assay in all cases: NCI-60 cell line screen, 48 h
NCI-H460 = test system: NCI-H460
A549 = test system: A549
RPMI-8226 = test system: RPMI-8226
K562 = test system: K562
SK-MEL-28 = test system: SK-MEL-28
ACHN = test system: ACHN
A498 = test system: A498
COLO 205 = test system: COLO 205
SK-MEL-2 = test system: SK-MEL-2
SW-620 = test system: SW-620
HOP-62 = test system: HOP-62
HCT-116 = test system: HCT-116
T47D = test system: T47D
OVCAR-3 = test system: OVCAR-3
MCF7 = test system: MCF7
HCT-15 = test system: HCT-15
NCI-H226 = test system: NCI-H226
SR = test system: SR
UACC-62 = test system: UACC-62
CCRF-CEM = test system: CCRF-CEM

Row | Compound | GI50 (NCI-H460) | GI50 (A549) | GI50 (RPMI-8226) | GI50 (K562) | GI50 (SK-MEL-28) | GI50 (ACHN) | GI50 (A498) | GI50 (COLO 205) | GI50 (SK-MEL-2) | GI50 (SW-620) | GI50 (HOP-62) | GI50 (HCT-116) | GI50 (T47D) | GI50 (OVCAR-3) | GI50 (MCF7) | GI50 (HCT-15) | GI50 (NCI-H226) | GI50 (SR) | GI50 (UACC-62) | GI50 (CCRF-CEM)
1 | Cc1ccc(NC(=O)c2ccccc2C(=O)O)cc1C | > 100 µM (inactive) | > 100 µM (inactive) | > 100 µM (inactive) | > 100 µM (inactive) | > 100 µM (inactive) | > 100 µM (inactive) | > 100 µM (inactive) | > 100 µM (inactive) | > 100 µM (inactive) | > 100 µM (inactive) | > 100 µM (inactive) | > 100 µM (inactive) | > 100 µM (inactive) | > 100 µM (inactive) | > 100 µM (inactive) | > 100 µM | > 100 µM (inactive) | > 100 µM (inactive) | > 100 µM (inactive) | 
2 | CC1(C)SC2C(NC(=O)Cc3ccccc3)C(=O)N2C1C(=O)O (stereo not given) | > 100 µM (inactive) | > 100 µM (inactive) |  | > 100 µM (inactive) | > 100 µM (inactive) | > 100 µM (inactive) | > 100 µM (inactive) | 65.6 µM (inactive) | > 100 µM (inactive) | > 100 µM (inactive) | > 100 µM (inactive) | > 100 µM (inactive) | > 100 µM (inactive) | > 100 µM (inactive) | > 100 µM (inactive) | > 100 µM | 34 µM (inactive) | > 100 µM (inactive) | > 100 µM (inactive) | 
3 | COc1cc2cnc(-c3ccccc3)cc2cc1OC | 32.2 µM (inactive) | 28.5 µM (inactive) | 15.9 µM (inactive) | 30.1 µM (inactive) | 33.5 µM (inactive) | 23.3 µM (inactive) | 0.252 µM (active) | 20.9 µM (inactive) | 23 µM (inactive) | 32.4 µM (inactive) | 56.1 µM (inactive) | 45.6 µM (inactive) | 26.7 µM (inactive) | 24.3 µM (inactive) | 18.5 µM (inactive) | 19 µM | 17.7 µM (inactive) | 16.8 µM (inactive) | 10 µM (inactive) | 
4 | CCN(CCCl)c1cc(CN(C)C)cc(NC(=O)c2ccc(C(=O)Nc3cccc(CN(C)C)c3)cc2)c1 | 0.716 µM (active) | 2.2 µM (inactive) | 2.16 µM (inactive) | 0.321 µM (active) | 2.07 µM (inactive) | 2.94 µM (inactive) | 2.65 µM (inactive) | 1.13 µM (inactive) | 0.467 µM (active) | 0.225 µM (active) | 0.326 µM (active) | 0.51 µM (active) | 1.91 µM (inactive) |  | 0.11 µM (active) | 32.4 µM | 3.21 µM (inactive) | 0.275 µM (active) | 1.27 µM (inactive) | 0.0708 µM (active)
5 | Cc1nn(C(=O)Cc2ccccc2)c2c1C(c1ccccc1O)SC(=N)N2 (stereo not given) | > 100 µM (inactive) | > 100 µM (inactive) | > 100 µM (inactive) | > 100 µM (inactive) | > 100 µM (inactive) | > 100 µM (inactive) | > 100 µM (inactive) | > 100 µM (inactive) |  | > 100 µM (inactive) | > 100 µM (inactive) | > 100 µM (inactive) | > 100 µM (inactive) |  | > 100 µM (inactive) | > 100 µM | > 100 µM (inactive) | > 100 µM (inactive) | > 100 µM (inactive) | > 100 µM (inactive)
6 | N=C(N)NS(=O)(=O)c1ccc(NC(=O)c2cccc3c(NNc4ccc(S(=O)(=O)N=C(N)N)cc4)c4ccccc4nc23)cc1 | 32.7 µM (inactive) | > 100 µM (inactive) | 37.9 µM (inactive) | 28.1 µM (inactive) | 37.2 µM (inactive) | 75 µM (inactive) |  | 92.7 µM (inactive) | 16.9 µM (inactive) | 48.9 µM (inactive) | > 100 µM (inactive) | 35.7 µM (inactive) | 22.6 µM (inactive) | 38.2 µM (inactive) | 29.9 µM (inactive) | 37.8 µM | 91.8 µM (inactive) | 32.6 µM (inactive) | 46.9 µM (inactive) | 19.3 µM (inactive)
7 | O=C(O)C1SCCS1 | > 100 µM (inactive) | > 100 µM (inactive) | > 100 µM (inactive) | > 100 µM (inactive) | > 100 µM (inactive) | > 100 µM (inactive) | > 100 µM (inactive) | > 100 µM (inactive) |  | > 100 µM (inactive) | > 100 µM (inactive) | > 100 µM (inactive) | > 100 µM (inactive) | > 100 µM (inactive) | > 100 µM (inactive) | > 100 µM | > 100 µM (inactive) | > 100 µM (inactive) | > 100 µM (inactive) | > 100 µM (inactive)
8 | CC1=C(C(=O)NCC(C)O)CC(C(=O)NCC(C)O)=C(C)N1 (stereo not given) | > 100 µM (inactive) | > 100 µM (inactive) | > 100 µM (inactive) | > 100 µM (inactive) | > 100 µM (inactive) | > 100 µM (inactive) |  | > 100 µM (inactive) | > 100 µM (inactive) | > 100 µM (inactive) | > 100 µM (inactive) | > 100 µM (inactive) | > 100 µM (inactive) | > 100 µM (inactive) | > 100 µM (inactive) | > 100 µM | 89.7 µM (inactive) | > 100 µM (inactive) | > 100 µM (inactive) | > 100 µM (inactive)
9 | COc1ccc(C(Nc2ncccn2)c2cc3c(cc2O)OCO3)cc1 (stereo not given) | 20.1 µM (inactive) | 32.2 µM (inactive) | 22.8 µM (inactive) | 23.1 µM (inactive) | 22.3 µM (inactive) | 41.8 µM (inactive) | 46.5 µM (inactive) | 26.6 µM (inactive) | 20.7 µM (inactive) | 9.42 µM (inactive) | 22.4 µM (inactive) | 29.4 µM (inactive) | 13.3 µM (inactive) | 17.3 µM (inactive) | 23.5 µM (inactive) | 18.8 µM | 21.7 µM (inactive) | 7.14 µM (inactive) | 32.4 µM (inactive) | 
10 | COc1ccc(/C=C/C2=NN(c3cccc(S(=O)(=O)O)c3)C3(C2)SCC(=O)N3c2nc3ccccc3s2)cc1 (stereo not given) | 50.7 µM (inactive) | 90.4 µM (inactive) | 22.8 µM (inactive) | 31.3 µM (inactive) | > 100 µM (inactive) | 69 µM (inactive) | 57 µM (inactive) | > 100 µM (inactive) | 95.5 µM (inactive) | > 100 µM (inactive) |  | > 100 µM (inactive) | 16.5 µM (inactive) |  | 46.8 µM (inactive) | 85.9 µM | 24.6 µM (inactive) | 19.5 µM (inactive) | 54.3 µM (inactive) | 17.3 µM (inactive)
11 | CC(C#N)(c1ccccc1)N(CCc1ccccc1)C(=O)Oc1ccccc1 (stereo not given) |  | > 100 µM (inactive) | > 100 µM (inactive) | > 100 µM (inactive) | > 100 µM (inactive) | > 100 µM (inactive) | > 100 µM (inactive) | > 100 µM (inactive) | > 100 µM (inactive) | > 100 µM (inactive) | 50.2 µM (inactive) | > 100 µM (inactive) | > 100 µM (inactive) | > 100 µM (inactive) | > 100 µM (inactive) | > 100 µM | 38.5 µM (inactive) | > 100 µM (inactive) | > 100 µM (inactive) | > 100 µM (inactive)
12 | O=C(O)C1CSC2(CCCN(Cc3ccccc3)C2)N1 (stereo not given) | > 100 µM (inactive) | > 100 µM (inactive) |  | > 28.8 µM (inactive) | > 100 µM (inactive) | > 100 µM (inactive) | > 100 µM (inactive) | > 100 µM (inactive) | > 100 µM (inactive) | > 100 µM (inactive) | > 100 µM (inactive) | > 100 µM (inactive) | > 100 µM (inactive) | > 100 µM (inactive) | > 100 µM (inactive) | > 100 µM | > 100 µM (inactive) | 4.81 µM (inactive) | > 100 µM (inactive) | 23.4 µM (inactive)
13 | COc1ccc(Cc2cc(Cc3ccc(OC)cc3)cc(Cc3ccc(OC)cc3)c2)cc1 | > 100 µM (inactive) | > 100 µM (inactive) | > 100 µM (inactive) | > 100 µM (inactive) | > 100 µM (inactive) | > 100 µM (inactive) | > 100 µM (inactive) |  | > 100 µM (inactive) | > 100 µM (inactive) | > 100 µM (inactive) | > 100 µM (inactive) | > 100 µM (inactive) | > 100 µM (inactive) | > 100 µM (inactive) | > 100 µM | > 100 µM (inactive) | 89.5 µM (inactive) | > 100 µM (inactive) | 
14 | Cc1ccccc1/N=C/N(C)C |  | 39.6 µM (inactive) | 13.3 µM (inactive) | 14.1 µM (inactive) | 75.3 µM (inactive) | 41.8 µM (inactive) | 91.6 µM (inactive) | 39.6 µM (inactive) | 15 µM (inactive) |  | 58.6 µM (inactive) | 33.8 µM (inactive) | 34 µM (inactive) | 17.7 µM (inactive) | 31.5 µM (inactive) | > 100 µM | 48.4 µM (inactive) | 11.4 µM (inactive) | 41.9 µM (inactive) | 23.2 µM (inactive)
15 | c1ccc(/N=C(/Nc2ccccc2)N2CCCCC2)cc1 | 73.3 µM (inactive) | > 100 µM (inactive) | 97.9 µM (inactive) | 40 µM (inactive) | 74 µM (inactive) | > 100 µM (inactive) |  | 59 µM (inactive) | > 100 µM (inactive) | > 100 µM (inactive) | > 100 µM (inactive) | 38.6 µM (inactive) | > 100 µM (inactive) | > 100 µM (inactive) | 68.7 µM (inactive) | > 100 µM | > 100 µM (inactive) | 73.6 µM (inactive) | 77.4 µM (inactive) | > 100 µM (inactive)
